From US20260166182A1, “CYANINE-BASED FLUOROPHORES” (The General Hospital Corporation, priority 2022, published 2026)
“Also recorded” adds a separate entry of the source.

Key:
[1] = system: triple-negative breast adenocarcinoma (E0771 cell); experiment: NIR-II fluorescence imaging of subcutaneous breast tumor-bearing C57BL/6 mice; format: in vivo, mouse; conditions: larger-sized breast tumors
Text: General NIR-II fluorescence imaging: A 640×512-pixel InGaAs camera (Ninox640, Raptor Photonics) and macro zoom lens (0-10×; Navitar Zoom 7000 with SWIR coating) along with 900, 1070, 1100, and 1200 nm long-pass (LP) filters from either Thorlab or Edmund optics were used to collect the NIR-II signal. InGaAs camera played a role as an open-air imaging system along with the support of the FLARE system. An 808 nm fiber-coupled diode laser ([…] at the sample) was used as an excitation source. Data acquisition was done using in-house developed software. The mice fur on the region of interest was shaved prior to imaging using a clipper and removed completely using a depilatory cream. 100 μL of SH1 in 5 w/v % BSA saline ([…]) was injected through the tail vein. Mice were imaged with intact skin using InGaAs camera. At least 3 mice were analyzed for each sample. […]
Statistical analysis: The fluorescence and background intensities of a region of interest over each tissue were quantified using customized imaging software and ImageJ v1.48 (National Institutes of Health, Bethesda, MD). The signal-to-background ratio (SBR) was calculated as SBR=fluorescence/background, where background was the fluorescence intensity of muscle. […] The differences among groups were determined using one-way ANOVA analysis to assess the statistical differences among more than two groups. […]

[2] = In vivo biodistribution study of NIR fluorophores in CD-1 mice; parameters: species or system mouse; conditions: 25 nmol intravenous, 4 h post-injection; listed as 18
Procedure: In Vivo Biodistribution Study of NIR Fluorophores: Under the supervision of the MGH IACUC, animals were housed in an AAALAC-certified facility and studied according to institutional protocol #2016N000136. In preparation for injection, CD-1 mice (25-30 g, 6 weeks, Charles River Laboratories, Wilmington, MA) were anesthetized with isoflurane and oxygen. A 10 mM stock solution of NIR fluorophores was prepared in DMSO, and 25 nmol of each molecule was diluted in BSA-containing saline (5 wt/v %) for intraoperative imaging. After 4 h post-injection, mice were imaged. For each experiment, camera exposure time and image normalization were held constant.
Quantitative Analysis: The fluorescence and background intensity of a region of interest (ROI) over each tissue was quantified using ImageJ software (NIH, Bethesda, MD) version 1.45q. The signal-to-background ratio (SBR) was calculated as SBR=fluorescence/background, where background is the signal intensity of neighboring tissues such as muscle. All NIR fluorescence images for a particular fluorophore were normalized identically for all conditions of an experiment.

[3] = Serum protein binding kinetics (size exclusion column); format: in vitro ADME; conditions: bovine, FBS/PBS 50/50 v/v % (serum proteins, mostly albumin), pH 7.4; within 30 min, FBS/PBS 50/50, 37° C.
Procedure: FIG. 15 Reaction kinetics of SH1, ICG, and IR-780 to serum proteins, mostly albumin. 50 nmol of each dye was mixed with 1 ml of FBS/PBS (pH 7.4) 50/50 v/v %, incubated at 37° C., and analyzed using a BioResolve size exclusion column (200 Å, 2.5 μm, 7.8×300 mm). The binding percentage was calculated by dividing by absorbance of bound dye at 24 h assuming the dyes can bind in maximum capacity in the protein at 24 h.

For CCCCN1/C(=C/C=C2\CCCC(/C=C/C3=[N+](CCCC)c4ccc(Cl)cc4C3(C)C)=C2Cl)C(C)(C)c2cc(Cl)ccc21 [SH1, 1-butyl-2-((E)-2-((E)-3-(2-((E)-1-butyl-5-chloro-3,3-dimethylindolin-2-ylidene)ethylidene)-2-chlorocyclohex-1-en-1-yl)vinyl)-5-chloro-3,3-dimethyl-3H-indol-1-ium], the TBR [1] was 17.6, the tissue/organ signals [2] was “high signals in the primary and secondary lymphoid tissues; also recorded: higher signals in the bone marrow, spleen, and lymph nodes” and the fraction unbound at 30 min, 50 μM [3] was roughly 0.65.
